Laboratory results published in ChEMBL document CHEMBL1201862, “PubChem BioAssay data set” (2004).
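Cells were grown in 96-well plates and exposed to each compound for 48 hours at five concentrations; endpoints were interpolated linearly between bracketing concentrations, or set to the highest concentration if not reached. Here, GI50 denotes the concentration required for 50% inhibition of growth.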 Calls of active or inactive are those of the source. Rule as the data show it: active = GI50 up to about 1.1 µM and inactive = higher.

Columns and labels:
Experiment in all cases: NCI anticancer screen, dose series, 48 h
786-0 = tested on: 786-0
A498 = tested on: A498
A549 = tested on: A549
ACHN = tested on: ACHN
BT-549 = tested on: BT-549
CAKI-1 = tested on: CAKI-1
CCRF-CEM = tested on: CCRF-CEM
COLO 205 = tested on: COLO 205
DLD-1 = tested on: DLD-1
DMS-114 = tested on: DMS-114
DMS-273 = tested on: DMS-273
DU-145 = tested on: DU-145
EKVX = tested on: EKVX
HCC 2998 = tested on: HCC 2998
HCT-116 = tested on: HCT-116
HCT-15 = tested on: HCT-15
HL-60 = tested on: HL-60
HOP-18 = tested on: HOP-18
HOP-62 = tested on: HOP-62
HOP-92 = tested on: HOP-92
HT-29 = tested on: HT-29
Hs-578T = tested on: Hs-578T
IGROV-1 = tested on: IGROV-1
K562 = tested on: K562
KM-20L2 = tested on: KM-20L2
KM12 = tested on: KM12
LOX IMVI = tested on: LOX IMVI
LXFL 529 = tested on: LXFL 529
M14 = tested on: M14
M19-MEL = tested on: M19-MEL
MCF7 = tested on: MCF7
MDA-MB-231 = tested on: MDA-MB-231
MDA-MB-435 = tested on: MDA-MB-435
MDA-N = tested on: MDA-N
MOLT-4 = tested on: MOLT-4
Malme-3M = tested on: Malme-3M
NCI-H226 = tested on: NCI-H226
NCI-H23 = tested on: NCI-H23
NCI-H460 = tested on: NCI-H460
NCI-H522 = tested on: NCI-H522
NCI/ADR-RES = tested on: NCI/ADR-RES
OVCAR-3 = tested on: OVCAR-3
OVCAR-4 = tested on: OVCAR-4
OVCAR-5 = tested on: OVCAR-5
OVCAR-8 = tested on: OVCAR-8
PC-3 = tested on: PC-3
RPMI-8226 = tested on: RPMI-8226
RXF 393 = tested on: RXF 393
SF-268 = tested on: SF-268
SF-295 = tested on: SF-295
SF-539 = tested on: SF-539
SK-MEL-28 = tested on: SK-MEL-28
SK-MEL-2 = tested on: SK-MEL-2
SK-MEL-5 = tested on: SK-MEL-5
SK-OV-3 = tested on: SK-OV-3
SN12C = tested on: SN12C
SNB-19 = tested on: SNB-19
SNB-75 = tested on: SNB-75
SNB-78 = tested on: SNB-78
SR = tested on: SR
SW-620 = tested on: SW-620
T47D = tested on: T47D
TK-10 = tested on: TK-10
U-251 = tested on: U-251
UACC-257 = tested on: UACC-257
UACC-62 = tested on: UACC-62
UO-31 = tested on: UO-31
XF498 = tested on: XF498
RXF 631 = tested on: RXF 631

With `CCCCCCCCCCCC(=O)OCC(C[As](=O)(O)O)OC(=O)CCCCCCCCCCC` (centres undefined) the GI50 (786-0) was 13.4 µM (inactive), the GI50 (A498) was 5.15 µM (inactive) and the GI50 (A549) was 8.2 µM (inactive). For the same compound, the GI50 (ACHN) was 2.24 µM (inactive), the GI50 (BT-549) was 7.1 µM (inactive) and the GI50 (CAKI-1) was 9.27 µM (inactive). For the same compound, the GI50 (CCRF-CEM) was 3.72 µM (inactive), the GI50 (COLO 205) was 7.67 µM (inactive) and the GI50 (DLD-1) was 15.8 µM (inactive). The GI50 (DMS-114) was 1.65 µM (inactive), the GI50 (DMS-273) was 2.47 µM (inactive) and the GI50 (DU-145) was 17.5 µM (inactive). The GI50 (EKVX) was 7.74 µM (inactive), the GI50 (HCC 2998) was 6.22 µM (inactive) and the GI50 (HCT-116) was 5.61 µM (inactive). For the same compound, the GI50 (HCT-15) was 8.39 µM, the GI50 (HL-60) was 2.61 µM (inactive) and the GI50 (HOP-18) was 3.93 µM (inactive). For the same compound, the GI50 (HOP-62) was 26.9 µM (inactive), the GI50 (HOP-92) was 1.88 µM (inactive) and the GI50 (HT-29) was 7.62 µM (inactive). For the same compound, the GI50 (Hs-578T) was 4.2 µM (inactive), the GI50 (IGROV-1) was 1.74 µM (inactive) and the GI50 (K562) was 5.32 µM (inactive). The GI50 (KM-20L2) was 5.66 µM (inactive), the GI50 (KM12) was 7.1 µM (inactive) and the GI50 (LOX IMVI) was 4.76 µM (inactive). The GI50 (LXFL 529) was 2.06 µM (inactive), the GI50 (M14) was 1.97 µM (inactive) and the GI50 (M19-MEL) was 4.25 µM (inactive). The GI50 (MCF7) was 3.93 µM (inactive), the GI50 (MDA-MB-231) was 4.54 µM (inactive) and the GI50 (MDA-MB-435) was 3.46 µM (inactive). For the same compound, the GI50 (MDA-N) was 4.48 µM (inactive), the GI50 (MOLT-4) was 3.96 µM (inactive) and the GI50 (Malme-3M) was 2.48 µM (inactive). For the same compound, the GI50 (NCI-H226) was 16.2 µM (inactive), the GI50 (NCI-H23) was 5.61 µM (inactive) and the GI50 (NCI-H460) was 4.05 µM (inactive). The GI50 (NCI-H522) was 2.13 µM (inactive), the GI50 (NCI/ADR-RES) was 21.3 µM (inactive) and the GI50 (OVCAR-3) was 8.81 µM (inactive). The GI50 (OVCAR-4) was 15.1 µM (inactive), the GI50 (OVCAR-5) was 18.1 µM (inactive) and the GI50 (OVCAR-8) was 11.7 µM (inactive). The GI50 (PC-3) was 3.18 µM (inactive), the GI50 (RPMI-8226) was 7.4 µM (inactive) and the GI50 (RXF 393) was 2.43 µM (inactive). The GI50 (SF-268) was 5.09 µM (inactive), the GI50 (SF-295) was 10.4 µM (inactive) and the GI50 (SF-539) was 7.89 µM (inactive). For the same compound, the GI50 (SK-MEL-28) was 2.96 µM (inactive), the GI50 (SK-MEL-2) was 3.92 µM (inactive) and the GI50 (SK-MEL-5) was 1.75 µM (inactive). For the same compound, the GI50 (SK-OV-3) was 13.8 µM (inactive), the GI50 (SN12C) was 2.94 µM (inactive) and the GI50 (SNB-19) was 3.28 µM (inactive). The GI50 (SNB-75) was 6.95 µM (inactive), the GI50 (SNB-78) was 2.82 µM (inactive) and the GI50 (SR) was 3.64 µM (inactive). The GI50 (SW-620) was 12.1 µM (inactive), the GI50 (T47D) was 14.7 µM (inactive) and the GI50 (TK-10) was 14.3 µM (inactive). The GI50 (U-251) was 1.54 µM (inactive), the GI50 (UACC-257) was 7.52 µM (inactive) and the GI50 (UACC-62) was 2.03 µM (inactive). The GI50 (UO-31) was 12.4 µM (inactive) and the GI50 (XF498) was 2.9 µM (inactive).
In the case of `CCCCCCCCCCCCCCCCCC(=O)NCC(COP(=O)([O-])OCC[N+](C)(C)C)OCC` (centres undefined), the GI50 (A549) was 19.2 µM (inactive), the GI50 (DMS-114) was 18.5 µM (inactive) and the GI50 (DMS-273) was 0.137 µM (active). The GI50 (EKVX) was 21.9 µM (inactive), the GI50 (KM-20L2) was 0.237 µM (active) and the GI50 (LOX IMVI) was 24.9 µM (inactive). The GI50 (Malme-3M) was 21.3 µM (inactive), the GI50 (NCI-H23) was 19.7 µM (inactive) and the GI50 (RXF 631) was 22.2 µM (inactive). The GI50 (SF-539) was 17.7 µM (inactive), the GI50 (SK-MEL-28) was 18.2 µM (inactive) and the GI50 (SK-MEL-5) was 17.7 µM (inactive). For the same compound, the GI50 (SK-OV-3) was 19.4 µM (inactive), the GI50 (SNB-19) was 0.174 µM (active) and the GI50 (UACC-257) was 18.6 µM (inactive). For the same compound, the GI50 (UO-31) was 19.5 µM (inactive).
